Data from patent US8372967B2, “Compounds and methods for modulating expression of GCCR” (Isis Pharmaceuticals, Inc., priority 2006, dated 2013).
Strand notation (5' to 3'): a small letter for the sugar, then the base; units joined by * are phosphorothioate-linked, units joined directly phosphodiester-linked; [ ] holds rarer units or linkages, { } end groups; capitals alone tell only the bases. e = 2'-O-(2-methoxyethyl) (MOE); [5mC] = 5-methylcytosine; d = 2'-deoxy (DNA)

Test system: PCSK9 mRNA
Assay type: cell-based, human
Details: Hep3B cells, 100 nM, relative to untreated control cells; for % Inhib: 0 = no reduction observed
Experimental: When cells reached appropriate confluency, they were treated with oligonucleotide using LIPOFECTIN® as described. […] Cells were treated and data were obtained in duplicate or triplicate. […] Cells were harvested 16-24 hours after oligonucleotide treatment.
Prior to quantitative PCR analysis, primer-probe sets specific to the target gene being measured were evaluated for their ability to be “multiplexed” with a GAPDH amplification reaction. After isolation the RNA is subjected to sequential reverse transcriptase (RT) reaction and real-time PCR, both of which are performed in the same well. RT and PCR reagents were obtained from Invitrogen Life Technologies (Carlsbad, Calif.). […] The RT reaction was carried out by incubation for 30 minutes at 48° C. Following a 10 minute incubation at 95° C. to activate the PLATIN 9M® Taq, 40 cycles of a two-step PCR protocol were carried out: 95° C. for 15 seconds (denaturation) followed by 60° C. for 1.5 minutes (annealing/extension).
170 μL of RiboGreen® working reagent (RiboGreen® reagent diluted 1:350 in 10 mM Tris-HCl, 1 mM EDTA, pH 7.5) was pipetted into a 96-well plate containing 30 μL purified cellular RNA. The plate was read in a CytoFluor® 4000 (PE Applied Biosystems) with excitation at 485 nm and emission at 530 nm.
Short antisense compounds targeted to a PCSK9 nucleic acid were tested for their effects on PCSK9 mRNA in vitro. The Isis No, gapmer motif and SEQ ID NO of each short antisense compound are shown again in Table 75. Cultured Hep3B cells were treated with 100 nM of short antisense compound. 5-10-5 MOE gapmers targeted to a PCSK9 nucleic acid were used as positive controls. After the treatment period, RNA was isolated from the cells and PCSK9 mRNA levels were measured by quantitative real-time PCR, as described herein. PCSK9 mRNA levels were adjusted according to total RNA content as measured by RIBOGREEN®. Results are presented in Table 75 as percent inhibition of PCSK9 (% Inhib), relative to untreated control cells.

Substance	% Inhib	% Inhibition Range
400344 (antisense eG*eG*dG*dT*dG*d[5mC]*dT*dG*dG*dG*dG*dG*eG*e[5mC]) [compound 400344]	0%	–
400345 (antisense eT*eG*dG*dG*dT*dG*d[5mC]*dT*dG*dG*dG*dG*eG*eG) [compound 400345]	0%	–
400346 (antisense eG*eA*dG*d[5mC]*dA*dG*d[5mC]*dT*d[5mC]*dA*dG*d[5mC]*eA*eG) [compound 400346]	5%	–
400347 (antisense eG*eG*dA*dG*d[5mC]*dA*dG*d[5mC]*dT*d[5mC]*dA*dG*e[5mC]*eA) [compound 400347]	0%	–
400348 (antisense eT*eG*dG*dA*dG*d[5mC]*dA*dG*d[5mC]*dT*d[5mC]*dA*eG*e[5mC]) [compound 400348]	0%	–
400349 (antisense e[5mC]*eT*dG*dG*dA*dG*d[5mC]*dA*dG*d[5mC]*dT*d[5mC]*eA*eG) [compound 400349]	13%	10-20%
400350 (antisense e[5mC]*e[5mC]*d[5mC]*dT*d[5mC]*dA*d[5mC]*d[5mC]*d[5mC]*d[5mC]*d[5mC]*dA*eA*eA) [compound 400350]	15%	10-20%
400351 (antisense eA*e[5mC]*d[5mC]*d[5mC]*dT*d[5mC]*dA*d[5mC]*d[5mC]*d[5mC]*d[5mC]*d[5mC]*eA*eA) [compound 400351]	14%	10-20%
400354 (antisense eG*eA*d[5mC]*dA*d[5mC]*d[5mC]*d[5mC]*dT*d[5mC]*dA*d[5mC]*d[5mC]*e[5mC]*e[5mC]) [compound 400354]	19%	10-20%
400355 (antisense eA*eG*dA*d[5mC]*dA*d[5mC]*d[5mC]*d[5mC]*dT*d[5mC]*dA*d[5mC]*e[5mC]*e[5mC]) [compound 400355]	0%	–
400356 (antisense eT*eA*dG*dA*d[5mC]*dA*d[5mC]*d[5mC]*d[5mC]*dT*d[5mC]*dA*e[5mC]*e[5mC]) [compound 400356]	0%	–
400357 (antisense eT*eG*dG*d[5mC]*dA*dG*d[5mC]*dA*dG*dG*dA*dA*eG*e[5mC]) [compound 400357]	0%	–
400358 (antisense eA*eT*dG*dG*d[5mC]*dA*dG*d[5mC]*dA*dG*dG*dA*eA*eG) [compound 400358]	12%	10-20%
400359 (antisense e[5mC]*eA*dT*dG*dG*d[5mC]*dA*dG*d[5mC]*dA*dG*dG*eA*eA) [compound 400359]	0%	–
400360 (antisense eG*e[5mC]*dA*dT*dG*dG*d[5mC]*dA*dG*d[5mC]*dA*dG*eG*eA) [compound 400360]	38%	30-40%
400361 (antisense eG*eG*d[5mC]*dA*dG*d[5mC]*dA*dG*dA*dT*dG*dG*e[5mC]*eA) [compound 400361]	2%	–
400362 (antisense e[5mC]*eG*dG*d[5mC]*dA*dG*d[5mC]*dA*dG*dA*dT*dG*eG*e[5mC]) [compound 400362]	16%	10-20%
400363 (antisense e[5mC]*e[5mC]*dG*dG*d[5mC]*dA*dG*d[5mC]*dA*dG*dA*dT*eG*eG) [compound 400363]	8%	–
400364 (antisense eT*e[5mC]*d[5mC]*dG*dG*d[5mC]*dA*dG*d[5mC]*dA*dG*dA*eT*eG) [compound 400364]	0%	–
400365 (antisense e[5mC]*eT*d[5mC]*d[5mC]*dG*dG*d[5mC]*dA*dG*d[5mC]*dA*dG*eA*eT) [compound 400365]	25%	20-30%
400366 (antisense eG*e[5mC]*dT*d[5mC]*d[5mC]*dG*dG*d[5mC]*dA*dG*d[5mC]*dA*eG*eA) [compound 400366]	15%	10-20%
